Reference: DBAASP
Converted amounts (≈) assume the structure as drawn.

What was measured:
Assay in all cases: ≥ marks a high value that may be exact or a test limit, other limits are often not marked, values filed in µg/mL are converted to µM
[1] = system: Escherichia coli ATCC 25922
[2] = system: Staphylococcus aureus ATCC 29213
Staphylococcus aureus = system: Staphylococcus aureus
[3] = system: Staphylococcus epidermidis ATCC 12228
Escherichia coli = system: Escherichia coli
Bacillus subtilis = system: Bacillus subtilis
Pseudomonas aeruginosa = system: Pseudomonas aeruginosa

| Structure (SMILES) | MIC [1] | MIC [2] | MIC (Staphylococcus aureus) | MIC (Escherichia coli) | also measured |
| --- | --- | --- | --- | --- | --- |
| CC[C@H](C)[C@H](NC(=O)[C@H](CCCN=C(N)N)NC(=O)[C@H](CCCCN)NC(=O)[C@@H](N)Cc1ccccc1)C(=O)NCC(=O)N[C@@H](CCC(N)=O)C(=O)N[C@@H](CCCN=C(N)N)C(=O)N[C@H](C(=O)N[C@@H](CCCCN)C(=O)N[C@@H](CC(=O)O)C(=O)N[C@@H](Cc1ccccc1)C(=O)N[C@@H](CC(C)C)C(=O)N[C@@H](CCCN=C(N)N)C(=O)O)[C@@H](C)CC [FKRIGQRIKDFLR] | 5 µM (≈ 8.39 µg/mL) | > 40 µM | – | – | – |
| CC[C@H](C)[C@H](NC(=O)[C@H](CCCN=C(N)N)NC(=O)[C@H](CCCCN)NC(=O)[C@@H](N)Cc1ccccc1)C(=O)N[C@H](C(=O)N[C@@H](CCC(N)=O)C(=O)N[C@@H](CCCN=C(N)N)C(=O)N[C@@H](C)C(=O)N[C@@H](CCCCN)C(=O)N[C@@H](CC(=O)O)C(=O)N[C@@H](Cc1ccccc1)C(=O)N[C@@H](CC(C)C)C(=O)N[C@@H](CCCN=C(N)N)C(=O)O)C(C)C [FKRIVQRAKDFLR] | 10 µM (≈ 16.8 µg/mL) | > 40 µM | – | – | – |
| CC[C@H](C)[C@H](NC(=O)[C@H](CCCN=C(N)N)NC(=O)[C@H](CCC(N)=O)NC(=O)[C@@H](NC(=O)[C@H](CC(N)=O)NC(=O)[C@H](CCCN=C(N)N)NC(=O)[C@H](CCCCN)NC(=O)[C@@H](N)Cc1ccccc1)C(C)C)C(=O)N[C@@H](CCCCN)C(=O)N[C@@H](CC(=O)O)C(=O)N[C@@H](Cc1ccccc1)C(=O)N[C@@H](CC(C)C)C(=O)N[C@@H](CCCN=C(N)N)C(=O)O [FKRNVQRIKDFLR] | 20 µM (≈ 34.4 µg/mL) | > 40 µM | – | – | – |
| CC[C@H](C)[C@H](NC(=O)[C@H](Cc1ccccc1)NC(=O)[C@@H]1CCCN1C(=O)[C@H](CC(C)C)NC(=O)[C@@H](N)Cc1ccccc1)C(=O)N[C@@H](C)C(=O)N[C@@H](CCCN=C(N)N)C(=O)N[C@@H](CC(C)C)C(=O)N[C@@H](C)C(=O)N[C@@H](C)C(=O)N[C@@H](CCCCN)C(=O)N[C@H](C(=O)N[C@@H](Cc1ccccc1)C(=O)N1CCC[C@H]1C(=O)N[C@@H](CO)C(=O)N[C@H](C(=O)N[C@H](C(=O)N[C@H]1CSSC[C@@H](C(=O)O)NC(=O)[C@H](CCCCN)NC(=O)[C@H](CCCCN)NC(=O)[C@H]([C@@H](C)O)NC(=O)[C@H](C(C)C)NC(=O)[C@H](CO)NC1=O)[C@@H](C)CC)[C@@H](C)CC)C(C)C [FLPFIARLAAKVFPSIICSVTKKC] | 1.51 µM (≈ 4 µg/mL) | 0.533 µM (≈ 1.41 µg/mL) | 55 µM (≈ 146 µg/mL) | – | – |
| CC[C@H](C)[C@H](NC(=O)CN)C(=O)N[C@@H](CCCCN)C(=O)N[C@@H](CCCCN)C(=O)N[C@@H](Cc1c[nH]c2ccccc12)C(=O)N[C@@H](CC(C)C)C(=O)N[C@@H](Cc1cnc[nH]1)C(=O)N[C@@H](CCCCN)C(=O)N1CCC[C@H]1C(=O)N[C@@H](CCCCN)C(=O)N[C@@H](CCCCN)C(=O)N[C@@H](Cc1ccccc1)C(=O)N1CCC[C@H]1C(=O)N[C@@H](CCCCN)C(=O)N[C@@H](CCCCN)C(=O)N[C@@H](Cc1ccccc1)C(=O)N[C@H](C(=O)N[C@@H](CCCCN)C(=O)N[C@@H](CCCCN)C(=O)N[C@H](C(=O)N[C@@H](CCSC)C(=O)N[C@@H](CC(N)=O)C(=O)N[C@@H](CO)C(N)=O)[C@@H](C)CC)C(C)C [GIKKWLHKPKKFPKKFVKKIMNS] | 10 µM (≈ 28.1 µg/mL) | – | – | – | MIC [3]: 1.25 µM (≈ 3.51 µg/mL) |
| CC[C@H](C)[C@H](NC(=O)[C@H](Cc1ccccc1)NC(=O)CNC(=O)[C@H](CCCCN)NC(=O)[C@H](C)NC(=O)[C@H](Cc1ccccc1)NC(=O)[C@H](CCCCN)NC(=O)[C@H](CCCCN)NC(=O)[C@@H](NC(=O)[C@H](CO)NC(=O)[C@H](Cc1cnc[nH]1)NC(=O)[C@H](CC(C)C)NC(=O)[C@@H](NC(=O)[C@H](CCC(=O)O)NC(=O)[C@H](CCCCN)NC(=O)[C@H](CC(C)C)NC(=O)CN)C(C)C)[C@@H](C)O)C(=O)N[C@H](C(=O)NCC(=O)N[C@@H](CC(C)C)C(=O)N[C@H](C(=O)NCC(=O)N[C@@H](CCC(N)=O)C(=O)O)[C@@H](C)O)[C@@H](C)O [GLKEVLHSTKKFAKGFITGLTGQ] | – | – | > 160 µM | > 160 µM | – |
| CC[C@H](C)[C@H](NC(=O)[C@@H](NC(=O)[C@@H](NC(=O)[C@H](Cc1c[nH]c2ccccc12)NC(=O)[C@@H](NC(=O)CN)C(C)C)[C@@H](C)O)[C@@H](C)O)C(=O)N[C@@H](CC(C)C)C(=O)NCC(=O)NCC(=O)N[C@@H](CC(C)C)C(=O)N[C@@H](CCCCN)C(=O)N[C@@H](CCCCN)C(=O)N[C@@H](Cc1ccccc1)C(=O)N[C@@H](C)C(=O)N[C@@H](CCCCN)C(=O)NCC(=O)NCC(=O)N[C@@H](CC(C)C)C(=O)N[C@@H](CCC(=O)O)C(=O)N[C@@H](C)C(=O)N[C@@H](CC(C)C)C(=O)N[C@H](C(=O)N[C@@H](CC(N)=O)C(=O)N1CCC[C@H]1C(=O)N[C@@H](CCCCN)C(=O)O)[C@@H](C)O [GVWTTILGGLKKFAKGGLEALTNPK] | – | – | 80 µM (≈ 208 µg/mL) | 40 µM (≈ 104 µg/mL) | – |
| CC[C@H](C)[C@H](N)C(=O)N[C@@H](CC(N)=O)C(=O)N[C@@H](Cc1c[nH]c2ccccc12)C(=O)N[C@@H](CCCCN)C(=O)N[C@@H](CCCCN)C(=O)N[C@H](C(=O)N[C@@H](C)C(=O)N[C@@H](CO)C(=O)N[C@H](C(=O)NCC(=O)N[C@@H](CCCCN)C(=O)N[C@@H](CCC(=O)O)C(=O)N[C@H](C(=O)N[C@@H](CC(C)C)C(=O)N[C@@H](CCCCN)C(N)=O)C(C)C)[C@@H](C)CC)[C@@H](C)CC [INWKKIASIGKEVLK] | – | – | – | 100 µM (≈ 173 µg/mL) | MIC (Bacillus subtilis): ≥ 100 µM |
| CC[C@H](C)[C@H](N)C(=O)N[C@@H](CC(N)=O)C(=O)N[C@@H](Cc1c[nH]c2ccccc12)C(=O)N[C@@H](CCCCN)C(=O)N[C@@H](CCCCN)C(=O)N[C@H](C(=O)N[C@@H](Cc1ccccc1)C(=O)N[C@@H](CCC(=O)O)C(=O)N[C@@H](CO)C(=O)N[C@H](C(=O)N[C@@H](CCCCN)C(=O)N[C@@H](CC(N)=O)C(=O)N[C@@H](CC(C)C)C(=O)N[C@H](C(N)=O)C(C)C)C(C)C)[C@@H](C)CC [INWKKIFESVKNLV] | – | – | – | 10 µM (≈ 17.2 µg/mL) | MIC (Bacillus subtilis): 10 µM (≈ 17.2 µg/mL) |
| CC[C@H](C)[C@H](N)C(=O)N[C@@H](CC(N)=O)C(=O)N[C@@H](Cc1c[nH]c2ccccc12)C(=O)N[C@@H](CCCCN)C(=O)N[C@@H](CO)C(=O)N[C@H](C(=O)N[C@@H](Cc1ccccc1)C(=O)N[C@@H](CCC(=O)O)C(=O)N[C@@H](CCCCN)C(=O)N[C@H](C(=O)N[C@@H](CCCCN)C(=O)N[C@@H](CC(N)=O)C(=O)N[C@@H](CC(C)C)C(=O)N[C@H](C(N)=O)C(C)C)C(C)C)[C@@H](C)CC [INWKSIFEKVKNLV] | – | – | – | 15 µM (≈ 25.8 µg/mL) | MIC (Bacillus subtilis): 15 µM (≈ 25.8 µg/mL) |
| CC[C@H](C)[C@H](N)C(=O)N[C@@H](CC(N)=O)C(=O)N[C@@H](Cc1c[nH]c2ccccc12)C(=O)N[C@@H](CC(C)C)C(=O)N[C@@H](CCCN=C(N)N)C(=O)N[C@@H](CC(C)C)C(=O)NCC(=O)N[C@@H](CCCN=C(N)N)C(=O)N[C@@H](CCCN=C(N)N)C(=O)N[C@H](C(=O)N[C@@H](CC(C)C)C(=O)NCC(=O)N[C@@H](C)C(=O)N[C@@H](CC(C)C)C(N)=O)[C@@H](C)CC [INWLRLGRRILGAL] | – | – | – | > 100 µM | MIC (Bacillus subtilis): 17.5 µM (≈ 28.9 µg/mL) |
| CC[C@H](C)[C@H](NC(=O)[C@H](C)NC(=O)[C@H](CCCCN)NC(=O)[C@H](C)NC(=O)[C@@H](NC(=O)[C@H](CO)NC(=O)[C@H](CCCCN)NC(=O)[C@@H](NC(=O)[C@H](Cc1c[nH]c2ccccc12)NC(=O)[C@H](CCCCN)NC(=O)[C@H](CC(C)C)NC(=O)[C@@H](NC(=O)[C@H](CO)NC(=O)[C@H](CCCCN)NC(=O)[C@H](C)NC(=O)[C@@H](NC(=O)[C@H](C)NC(=O)[C@@H](N)CCCCN)[C@@H](C)CC)[C@@H](C)CC)[C@@H](C)CC)[C@@H](C)CC)C(N)=O [KAIAKSILKWIKSIAKAI] | – | – | 1.4 µM (≈ 2.77 µg/mL) | 5.6 µM (≈ 11.1 µg/mL) | MIC (Pseudomonas aeruginosa): 11.2 µM (≈ 22.2 µg/mL) |
| CC(C)C[C@H](NC(=O)CNC(=O)[C@H](C)NC(=O)[C@H](CCCCN)NC(=O)[C@H](CC(C)C)NC(=O)[C@H](CCCCN)NC(=O)[C@H](C)NC(=O)[C@H](CC(C)C)NC(=O)CNC(=O)[C@H](C)NC(=O)[C@H](CCCCN)NC(=O)[C@H](Cc1c[nH]c2ccccc12)NC(=O)[C@H](CCCCN)NC(=O)[C@H](C)NC(=O)[C@H](CC(C)C)NC(=O)CNC(=O)[C@H](C)NC(=O)[C@H](CCCCN)NC(=O)[C@H](CC(C)C)NC(=O)[C@@H](N)CCCCN)C(=O)N[C@@H](C)C(N)=O [KLKAGLAKWKAGLAKLKAGLA] | – | – | 120 µM (≈ 256 µg/mL) | 15 µM (≈ 32 µg/mL) | MIC (Pseudomonas aeruginosa): > 120 µM |
| CC(=O)N[C@@H](CC(C)C)C(=O)N[C@@H](CCCCN)C(=O)N[C@@H](CCCCN)C(=O)N[C@@H](CC(C)C)C(=O)N1CCC[C@H]1C(=O)N[C@@H](CCCCN)C(=O)N[C@@H](CC(C)C)C(=O)N[C@@H](CO)C(=O)N[C@@H](CCCCN)C(=O)N[C@@H](CCCCN)C(=O)N[C@@H](CC(C)C)C(=O)N[C@@H](CC(C)C)C(=O)N[C@@H](CCCCN)C(=O)N[C@@H](CC(C)C)C(N)=O [LKKLPKLSKKLLKL] | 3.54 µM (≈ 5.98 µg/mL) | 14.1 µM (≈ 23.9 µg/mL) | – | – | – |
| CC[C@H](C)[C@H](NC(=O)[C@@H](NC(=O)[C@H](C)NC(=O)[C@H](CCCN=C(N)N)NC(=O)[C@H](CC(N)=O)NC(=O)[C@H](Cc1ccccc1)NC(=O)[C@H](CO)NC(=O)[C@@H](NC(=O)[C@H](CCCN=C(N)N)NC(=O)[C@H](CCCN=C(N)N)NC(=O)[C@H](CCCN=C(N)N)NC(=O)[C@H](CC(C)C)NC(=O)[C@H](CCC(=O)O)NC(=O)[C@H](CC(N)=O)NC(=O)[C@H](CCC(=O)O)NC(=O)[C@H](CCC(=O)O)NC(=O)[C@H](CC(N)=O)NC(=O)[C@@H](N)CC(N)=O)C(C)C)C(C)C)C(=O)N[C@@H](Cc1cnc[nH]1)C(=O)N[C@@H](CO)C(=O)N[C@@H](CC(C)C)C(=O)N[C@@H](CC(C)C)C(=O)NCC(N)=O [NNEENELRRRVSFNRAVIHSLLG] | > 257 µM | > 257 µM | – | – | – |
| CC(C)C[C@H](NC(=O)[C@H](Cc1ccccc1)NC(=O)[C@@H]1CCCN1C(=O)[C@H](Cc1c[nH]c2ccccc12)NC(=O)[C@H](Cc1c[nH]c2ccccc12)NC(=O)[C@H](Cc1c[nH]c2ccccc12)NC(=O)[C@H](C)NC(=O)[C@H](Cc1ccccc1)NC(=O)[C@H](CCCN=C(N)N)NC(=O)[C@H](CCCN=C(N)N)NC(=O)[C@@H](N)C(C)C)C(=O)N[C@@H](CCCN=C(N)N)C(=O)N[C@@H](CCCN=C(N)N)C(N)=O [VRRFAWWWPFLRR] | 8 µM (≈ 15 µg/mL) | – | 2.13 µM (≈ 4 µg/mL) | 10.7 µM (≈ 20 µg/mL) | – |
